Measured values from the supplement of paper PMC10883282.

Assays:
Assay in all cases: relative viability vs DMSO control (72 h) (fraction); higher = more viable cells
RD-ES = tested on: RD-ES
Outline: (§1)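 Sarcoma cell lines were grown in 384-well plates seeded toward 80–90% confluence and exposed 24 h later to serially diluted compound. After 72 h at 37 °C and 5% CO2, with 0.1% DMSO vehicle and a 5 µM positive control on the plates, ATPLite was read. Relative viability, given as percent growth averaged over up to triplicate wells, was rescaled so that 1 is full and 0 is none.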

HS729 = tested on: HS729
Outline: as §1

RD = tested on: RD
Outline: as §1

HT1080 = tested on: HT1080
Outline: as §1

SW684 = tested on: SW684
Outline: as §1

SW1353 = tested on: SW1353
Outline: as §1

KHOS-240S = tested on: KHOS-240S
Outline: as §1

SYO-1 = tested on: SYO-1
Outline: as §1

KHOS-NP = tested on: KHOS-NP
Outline: as §1

SW872 = tested on: SW872
Outline: as §1

SK-LMS-1 = tested on: SK-LMS-1
Outline: as §1

G401 = tested on: G401
Outline: as §1

CC(C)(C)c1nc(-c2cccc(NS(=O)(=O)c3c(F)cccc3F)c2F)c(-c2ccnc(N)n2)s1 [Dabrafenib]
Details	relative viability
G401, 0.00017 µM	0.982
G401, 0.00051 µM	0.994
G401, 0.00152 µM	0.916
G401, 0.00457 µM	0.937
G401, 0.01372 µM	0.949
G401, 0.04115 µM	0.955
G401, 0.1235 µM	0.929
G401, 0.3704 µM	0.857
G401, 1.111 µM	0.768
G401, 3.333 µM	0.781
G401, 10 µM	0.814
HS729, 0.00017 µM	0.958
HS729, 0.00051 µM	0.949
HS729, 0.00152 µM	0.867
HS729, 0.00457 µM	0.85
HS729, 0.01372 µM	0.84
HS729, 0.04115 µM	0.844
HS729, 0.1235 µM	0.774
HS729, 0.3704 µM	0.659
HS729, 1.111 µM	0.63
HS729, 3.333 µM	0.683
HS729, 10 µM	0.811
HT1080, 0.00017 µM	1.05
HT1080, 0.00051 µM	1.09
HT1080, 0.00152 µM	1.01
HT1080, 0.00457 µM	1.07
HT1080, 0.01372 µM	1.05
HT1080, 0.04115 µM	1.11
HT1080, 0.1235 µM	1.13
HT1080, 0.3704 µM	0.944
HT1080, 1.111 µM	0.837
HT1080, 3.333 µM	0.886
HT1080, 10 µM	0.6761
KHOS-240S, 0.00017 µM	1.07
KHOS-240S, 0.00051 µM	1.06
KHOS-240S, 0.00152 µM	1.04
KHOS-240S, 0.00457 µM	1.03
KHOS-240S, 0.01372 µM	1.01
KHOS-240S, 0.04115 µM	1
KHOS-240S, 0.1235 µM	1.03
KHOS-240S, 0.3704 µM	1.01
KHOS-240S, 1.111 µM	0.975
KHOS-240S, 3.333 µM	0.964
KHOS-240S, 10 µM	0.854
KHOS-NP, 0.00017 µM	1.09
KHOS-NP, 0.00051 µM	1.07
KHOS-NP, 0.00152 µM	1.05
KHOS-NP, 0.00457 µM	0.995
KHOS-NP, 0.01372 µM	1.01
KHOS-NP, 0.04115 µM	1.03
KHOS-NP, 0.1235 µM	1.01
KHOS-NP, 0.3704 µM	0.901
KHOS-NP, 1.111 µM	0.743
KHOS-NP, 3.333 µM	0.522
KHOS-NP, 10 µM	0.303
RD, 0.00017 µM	1.07
RD, 0.00051 µM	1.07
RD, 0.00152 µM	1.07
RD, 0.00457 µM	1.11
RD, 0.01372 µM	1.12
RD, 0.04115 µM	1.1
RD, 0.1235 µM	1.1
RD, 0.3704 µM	0.989
RD, 1.111 µM	0.915
RD, 3.333 µM	0.871
RD, 10 µM	0.846
RD-ES, 0.00017 µM	0.94
RD-ES, 0.00051 µM	0.924
RD-ES, 0.00152 µM	0.948
RD-ES, 0.00457 µM	0.94
RD-ES, 0.01372 µM	0.911
RD-ES, 0.04115 µM	0.872
RD-ES, 0.1235 µM	0.838
RD-ES, 0.3704 µM	0.706
RD-ES, 1.111 µM	0.531
RD-ES, 3.333 µM	0.508
RD-ES, 10 µM	0.557
SK-LMS-1, 0.00017 µM	1.07
SK-LMS-1, 0.00051 µM	1.06
SK-LMS-1, 0.00152 µM	1.05
SK-LMS-1, 0.00457 µM	1.02
SK-LMS-1, 0.01372 µM	0.964
SK-LMS-1, 0.04115 µM	0.84
SK-LMS-1, 0.1235 µM	0.7165
SK-LMS-1, 0.3704 µM	0.586
SK-LMS-1, 1.111 µM	0.607
SK-LMS-1, 3.333 µM	0.691
SK-LMS-1, 10 µM	0.557
SW684, 0.00017 µM	1.13
SW684, 0.00051 µM	1.09
SW684, 0.00152 µM	1.129
SW684, 0.00457 µM	1.18
SW684, 0.01372 µM	1.13
SW684, 0.04115 µM	1.12
SW684, 0.1235 µM	1.13
SW684, 0.3704 µM	1.025
SW684, 1.111 µM	0.953
SW684, 3.333 µM	1.09
SW684, 10 µM	1.16
SW872, 0.00017 µM	1.08
SW872, 0.00051 µM	1.01
SW872, 0.00152 µM	0.907
SW872, 0.00457 µM	0.821
SW872, 0.01372 µM	0.614
SW872, 0.04115 µM	0.558
SW872, 0.1235 µM	0.525
SW872, 0.3704 µM	0.463
SW872, 1.111 µM	0.412
SW872, 3.333 µM	0.398
SW872, 10 µM	0.334
SW1353, 0.00017 µM	1.02
SW1353, 0.00051 µM	1.01
SW1353, 0.00152 µM	0.957
SW1353, 0.00457 µM	0.959
SW1353, 0.01372 µM	0.9603
SW1353, 0.04115 µM	0.936
SW1353, 0.1235 µM	0.898
SW1353, 0.3704 µM	0.875
SW1353, 1.111 µM	0.859
SW1353, 3.333 µM	0.89
SW1353, 10 µM	0.988
SYO-1, 0.00017 µM	0.985
SYO-1, 0.00051 µM	0.9278
SYO-1, 0.00152 µM	0.926
SYO-1, 0.00457 µM	0.911
SYO-1, 0.01372 µM	0.92
SYO-1, 0.04115 µM	0.919
SYO-1, 0.1235 µM	0.898
SYO-1, 0.3704 µM	0.939
SYO-1, 1.111 µM	0.857
SYO-1, 3.333 µM	0.871
SYO-1, 10 µM	0.816

CCc1cnn2c(NCc3ccc[n+]([O-])c3)cc(N3CCCC[C@H]3CCO)nc12 [Dinaciclib]
Details	relative viability
G401, 0.00017 µM	0.997
G401, 0.00051 µM	0.974
G401, 0.00152 µM	0.989
G401, 0.00457 µM	0.915
G401, 0.01372 µM	0.46
G401, 0.04115 µM	0.089
G401, 0.1235 µM	0.0853
G401, 0.3704 µM	0.0974
G401, 1.111 µM	0.0916
G401, 3.333 µM	0.0843
G401, 10 µM	0.072
HS729, 0.00017 µM	1.05
HS729, 0.00051 µM	1.08
HS729, 0.00152 µM	1.09
HS729, 0.00457 µM	1.06
HS729, 0.01372 µM	1.03
HS729, 0.04115 µM	0.396
HS729, 0.1235 µM	0.378
HS729, 0.3704 µM	0.397
HS729, 1.111 µM	0.386
HS729, 3.333 µM	0.371
HS729, 10 µM	0.332
HT1080, 0.00017 µM	1.04
HT1080, 0.00051 µM	1.04
HT1080, 0.00152 µM	1.04
HT1080, 0.00457 µM	1.09
HT1080, 0.01372 µM	0.792
HT1080, 0.04115 µM	0.193
HT1080, 0.1235 µM	0.208
HT1080, 0.3704 µM	0.209
HT1080, 1.111 µM	0.202
HT1080, 3.333 µM	0.216
HT1080, 10 µM	0.219
KHOS-240S, 0.00017 µM	0.954
KHOS-240S, 0.00051 µM	0.976
KHOS-240S, 0.00152 µM	0.966
KHOS-240S, 0.00457 µM	0.913
KHOS-240S, 0.01372 µM	0.45
KHOS-240S, 0.04115 µM	0.214
KHOS-240S, 0.1235 µM	0.207
KHOS-240S, 0.3704 µM	0.21
KHOS-240S, 1.111 µM	0.218
KHOS-240S, 3.333 µM	0.213
KHOS-240S, 10 µM	0.181
KHOS-NP, 0.00017 µM	1.03
KHOS-NP, 0.00051 µM	1.05
KHOS-NP, 0.00152 µM	1.06
KHOS-NP, 0.00457 µM	1.07
KHOS-NP, 0.01372 µM	0.836
KHOS-NP, 0.04115 µM	0.183
KHOS-NP, 0.1235 µM	0.153
KHOS-NP, 0.3704 µM	0.163
KHOS-NP, 1.111 µM	0.164
KHOS-NP, 3.333 µM	0.162
KHOS-NP, 10 µM	0.137
RD, 0.00017 µM	0.828
RD, 0.00051 µM	0.851
RD, 0.00152 µM	0.821
RD, 0.00457 µM	0.736
RD, 0.01372 µM	0.504
RD, 0.04115 µM	0.163
RD, 0.1235 µM	0.162
RD, 0.3704 µM	0.137
RD, 1.111 µM	0.119
RD, 3.333 µM	0.103
RD, 10 µM	0.0835
RD-ES, 0.00017 µM	0.937
RD-ES, 0.00051 µM	0.916
RD-ES, 0.00152 µM	0.912
RD-ES, 0.00457 µM	0.886
RD-ES, 0.01372 µM	0.612
RD-ES, 0.04115 µM	0.0429
RD-ES, 0.1235 µM	0.0102
RD-ES, 0.3704 µM	0.00417
RD-ES, 1.111 µM	0.0013
RD-ES, 3.333 µM	-0.0014
RD-ES, 10 µM	-0.00263
SK-LMS-1, 0.00017 µM	1.06
SK-LMS-1, 0.00051 µM	1.05
SK-LMS-1, 0.00152 µM	1.07
SK-LMS-1, 0.00457 µM	1.03
SK-LMS-1, 0.01372 µM	0.817
SK-LMS-1, 0.04115 µM	0.325
SK-LMS-1, 0.1235 µM	0.309
SK-LMS-1, 0.3704 µM	0.333
SK-LMS-1, 1.111 µM	0.341
SK-LMS-1, 3.333 µM	0.34
SK-LMS-1, 10 µM	0.353
SW684, 0.00017 µM	0.96
SW684, 0.00051 µM	1.01
SW684, 0.00152 µM	1.02
SW684, 0.00457 µM	0.964
SW684, 0.01372 µM	0.669
SW684, 0.04115 µM	0.713
SW684, 0.1235 µM	0.71
SW684, 0.3704 µM	0.713
SW684, 1.111 µM	0.689
SW684, 3.333 µM	0.7
SW684, 10 µM	0.71
SW872, 0.00017 µM	1.01
SW872, 0.00051 µM	1.01
SW872, 0.00152 µM	1.01
SW872, 0.00457 µM	1.03
SW872, 0.01372 µM	0.947
SW872, 0.04115 µM	0.412
SW872, 0.1235 µM	0.279
SW872, 0.3704 µM	0.268
SW872, 1.111 µM	0.259
SW872, 3.333 µM	0.256
SW872, 10 µM	0.245
SW1353, 0.00017 µM	1.05
SW1353, 0.00051 µM	1.08
SW1353, 0.00152 µM	1.07
SW1353, 0.00457 µM	1.07
SW1353, 0.01372 µM	0.944
SW1353, 0.04115 µM	0.238
SW1353, 0.1235 µM	0.238
SW1353, 0.3704 µM	0.242
SW1353, 1.111 µM	0.235
SW1353, 3.333 µM	0.234
SW1353, 10 µM	0.219
SYO-1, 0.00017 µM	0.982
SYO-1, 0.00051 µM	0.998
SYO-1, 0.00152 µM	0.982
SYO-1, 0.00457 µM	0.908
SYO-1, 0.01372 µM	0.28
SYO-1, 0.04115 µM	0.248
SYO-1, 0.1235 µM	0.256
SYO-1, 0.3704 µM	0.294
SYO-1, 1.111 µM	0.288
SYO-1, 3.333 µM	0.295
SYO-1, 10 µM	0.305
